Key:
[1] = tested on: Candida albicans (ATCC 10231); conditions: 0.3% in CSL, 30° C., reduction from 10^7, 24 h
Protocol: (§1) An EuAB test for antimicrobial activity was performed with Corynebacterium xerosis (DSM 20743), Staphylococcus epidermidis (DSM 3269) and Candida albicans (ATCC 10231). As culture medium CSL (Casein peptone-soybean meal peptone solution), CSA (Casein peptone-soybean meal pepton agar) and Sabouraud-glucose broth/agar was used.
(§2) As dilution liquid NaCl-peptone buffer solution with inactivator (3% Tween 80, 0.3% lecithin, 0.1% histidine and 0.5% Na thiosulfate) was used. Polyglyceryl-3 caprylate was tested in 0.3% (in CSL) concentration. The test solution was prepared one day before investigation. For this, 100 ml of CSL was heated to 60° C. in a water bath. 0.3 g was weighed into 100 ml of CSL at 60° C. The preparations were shaken vigorously by hand and left overnight at 30° C. in an incubator. Corynebacterium xerosis was cultivated over 3 to 4 days. Other microbes were isolated in broth or by elutriation. For each test microbe, 20 ml of each test solution were introduced into sterile 50 ml brown glass bottles with glass beads and contaminated with 0.2 ml of microbe suspension. As controls, 20 ml of CSL were carried over per test microbe without sample.
(§3) The contaminated samples were shaken for 3 min on a shaking machine and kept in an incubator at 30° C. until removed. At the removal points (1, 2, 3, 24 and 48 hours) 1 ml was taken from each preparation and transferred in each case to 9 ml of NaCl-peptone buffer solution with inactivator and the colony number was determined. The 0 hour values given were the colony numbers of the test microbe suspension used taking into consideration the 10^−2 dilution upon sample contamination.

[2] = tested on: Corynebacterium xerosis (DSM 20743); conditions: 0.3% in CSL, 30° C., reduction from 10^7, 24 h
Protocol: as §1, §2, §3

[3] = tested on: Staphylococcus epidermidis (DSM 3269); conditions: 0.3% in CSL, 30° C., reduction from 10^7, 24 h
Protocol: as §1, §2, §3

[4] = tested on: benchmark bacterial strain having an esterase activity; assay: Microbial decontamination efficiency of cleaning substances on contaminated plastic surfaces (esterase activity of swab); type: cell-based; conditions: remaining esterase activity after cleaning the plastic surface with an impregnated wipe; optical density at 414 nm; not cleaned: 3.474
Protocol: For this purpose, a benchmark bacterial strain having an esterase activity (isolated by traditional microbiological methods from samples collected from human foreheads) has been used to artificially contaminated surfaces. This strain has been prepared by an overnight incubation at 37° C. in LB medium. 200 μL of this cell preparation, corresponding to 6.107 cfu have been spread on five plastic surfaces and allowed to dry completely.
Samples have then been collected onto the different plastic surfaces using swabs beforehand impregnated with PBS containing 0.1% w/v of Triton X100. 16 μL of the transformable substrate (2-hydroxy-4-p-nitrophenoxy-butyl hexanoate 20 mM in DMSO) have been mixed with 184 μL of aqueous PBS buffer 0.1M pH7.3. The swab has been plunged in this mix and incubated for 1 h at 37° C. The swab has then been removed from the reaction mixture and 100 μL have been transferred to another vial. 4 μL of bovine serum albumin 50 mg/mL in water, 40 μL NaIO4 100 mM in water and 40 μL Na2CO3 200 mM in water have been added. The reaction mixture has been incubated for 10 min at room temperature and centrifuged for 15 min at 16000 g. The activity has then been quantified by measuring optical density at 414 nm.

## polyglyceryl-3 caprylate
[1]
  bacteria count (colony number) after 24 h: less than 270
[2]
  bacteria count (colony number) after 24 h: less than 270
[3]
  bacteria count (colony number) after 24 h: less than 270

## O [water]
[4]
  activity: 0.100

## CCO [70% ethanol, ethanol]
[4]
  activity: 0.195
